{"source": "patent US7049321B2", "about": "“Methods and pharmaceutical compositions for treatment of central and peripheral nervous system disorders and compounds useful therefor” (Israel Institute for Biological Research, priority 2002, dated 2006)", "key": {"[1]": {"molecular_target": "T1, M1 mAChR (Rattus norvegicus, UniProt P08482)", "T1 construct": "expressed in transfected cells; elsewhere rat pheochromocytoma cells", "T1 sequence (P08482 1-460)": "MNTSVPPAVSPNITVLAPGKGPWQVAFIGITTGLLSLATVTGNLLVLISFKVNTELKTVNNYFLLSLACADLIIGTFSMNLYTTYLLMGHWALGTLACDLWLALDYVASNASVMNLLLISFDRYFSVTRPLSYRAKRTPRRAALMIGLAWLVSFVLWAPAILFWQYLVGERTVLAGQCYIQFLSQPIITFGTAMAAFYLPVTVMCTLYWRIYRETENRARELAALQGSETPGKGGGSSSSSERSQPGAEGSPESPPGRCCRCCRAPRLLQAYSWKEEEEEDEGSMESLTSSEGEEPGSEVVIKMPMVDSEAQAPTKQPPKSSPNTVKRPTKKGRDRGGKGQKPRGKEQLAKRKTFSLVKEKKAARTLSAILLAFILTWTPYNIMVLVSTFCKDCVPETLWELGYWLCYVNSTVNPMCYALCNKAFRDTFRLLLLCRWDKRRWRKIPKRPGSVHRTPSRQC", "assay": "α-APPs secretion in cell cultures stably transfected with the M1 mAChR", "format": "cell-based", "settings": "for Emax: read-out: α-APPs secretion, % of maximal response of carbachol", "protocol": "Cells were plated in 6 well culture plates and used at the age of 3–5 days after plating. […] Cells exposed to medium alone are referred as controls.\nCell supernatants were collected into Eppendorff tubes containing a cocktail of protease inhibitors (5 units/ml aprotinin, […], […] and 10^−4M Phenylmethylsulfonylfluoride (PMSF, a protease inhibitor); Sigma, USA). The collected media were concentrated with Centricon tubes (Amicon, Beverly, Mass., USA) and kept frozen for α-APPs secretion determination. Equal amounts of protein (50–100 μg) were loaded and separated on 10% sodium dodecyl sulfate-polyacrylamide gel electrophoresis (SDS-PAGE). Followed by western blotting onto nitrocellulose membrane, blocked by fat-free milk, and probed for 24 hours at 4° C., with anti-Alzheimer's precursor protein, A4 monoclonal antibody 22C11 (0.25 μg/ml; Boehringer Mannheim, Germany). The nitrocellulose membranes were washed and incubated for 2 hours at room temperature with peroxidase-linked goat anti-mouse IgG antibodies (Jackson Immunoresearch, USA), followed by extensive washout and staining with enhanced chemiluminescence detection system (Amersham). Quantitative evaluation of the immunoreactive bands, on the exposed films, was performed by video-imaging densitometry (Gel-aid software; Galai Co., Israel). APPs levels were expressed as x-fold increase over basal levels."}, "[2]": {"test_system": "Rat pheochromocytoma cells transfected with M1 mAChR", "assay": "Neurite outgrowth response", "format": "cell-based", "settings": "for Emax: Rattus norvegicus, read-out: Maximal response, percent of cells with neurites", "protocol": "Rat pheochromocytoma cells transfected with M1 mAChR cells were grown as described in Gurwitz et al, (NeuroReport 6, 485,1995). For determination of neurite outgrowth, cells plated in six-well plates were used 3–5 days after-plating. Growth factors were added 1 day after plating and muscarinic agonists were added for the last 24 hrs.\nCells were observed under an inverted microscope. The percent of cells with neurite longer than cell diameter were scored in three random fields of several hundred cells from each well. Results were expressed as a percent of cells with neurites. Treatments were performed in triplicate cells. Both NGF (50 ng/ml) and EGF (100 ng/ml) were added 1 day after plating. Muscarinic agonists were added 24 hours before scoring."}, "[3]": {"test_system": "Rat pheochromocytoma cells transfected with M1 mAChR", "format": "cell-based", "settings": "for Cell death induced by β-A25-35: β-A25-35 (1 μM), 24 hrs, serum-deprived", "protocol": "Confluent rat pheochromocytoma cells transfected with the M1 mAChR cultures were detached with trypsin, washed and plated in 24-well, 6-well, 60-mm or 100-mm plates that were precoated with rat tail collagen (Sigma, Israel). Several experiments were performed in serum-free medium. For 3-(4,5-dimethylthiazol-2-yl)-2,5-diphenyl-tetrazolium bromide (MTT) assay, cells (1.5×10^4) were plated in 96-well collagen-precoated plates, in serum-free medium, with or without various drugs for 24 hours. For differentiation, cells were grown in the presence of 1% FCS and 1% HS, with addition of 50 ng/ml NGF for 7 days, to cause full differentiation. […] After 7 days, cells were washed and the medium was either replaced to serum-free, or cells were detached and replated in serum-free medium. Cells in serum-free medium were treated either with Aβ peptides that were previously “aged” or with H2O2. Tested compounds were added together with the insults for the indicated time, unless otherwise stated.\nCells were plated in 96-well plates in 100 μl medium. After exposure to various treatments, 10 μl of 5 mg/ml MTT [3-(4,5-dimethylthiazol-2-yl)-2,5-diphenyl-tetrazolium bromide; Sigma, Israel] solution in phosphate-buffered saline (PBS) was added to each well. Plates were incubated for 2 hrs at 37° C. followed by hydrocholoric acid-isopropanol addition (100 μl of 0.04N HCl/isopropanol). Plates were read using ELISA reader at a wavelength of 570 nm.\nThe MTT assay measures primary early changes within the cells, reflecting the integrity of the electron transport chain and provides a readout of cellular redox activity. This test is a specific, early indicator of the mechanism of β-amyloid-mediated cell death and can be used to detect rapid inhibitory response."}, "[4]": {"test_system": "cells transfected with M1 mAChR", "assay": "Protection from H2O2-induced toxicity", "format": "cell-based, rat"}, "[5]": {"test_system": "trihexyphenidyl rats", "assay": "Passive avoidance in trihexyphenidyl-treated rats", "format": "in vivo, Wistar rats", "settings": "for Retention latency: 24 h; for Effect on passive avoidance: AF292 0.03, 0.05, 0.1, 0.3, 0.5 mg/kg p.o., AF267B 0.5, 1, 5; for MED: p.o.", "from_the_text": "Trihexyphenidyl is a selective M1 muscarinic antagonist that crosses the blood brain barrier and induces memory and learning impairments (Bymaster et al. J Pharmacol Exp Ther 267: 16–24, 1993. Roldan et al Neurosci. Lett. 230: 93–96, 1997; Kimura et al Brain Res. 834: 6–12, 1999).\nNaive Wistar rats were used in the experiments below. The passive avoidance (PA) task is comprised of training (acquisition) phase and a retention phase. In the training procedure each rat was individually placed in the small illuminated compartment and after 60 sec. of familiarization/adaptation, the door to the large compartment was opened and the latency to enter was measured (Initial Latency). Immediately following entry into the dark compartment, the door was closed and inescapable foot shock (0.6 mA for 3 sec) was delivered through the grid floor. A cutoff point of 180 sec was used for initial latency. […] After the acquisition trial the rat was returned to its home cage. Retention of the passive avoidance task was measured 24 h later, by again placing the rat in the light compartment and after a 60 sec adaptation interval, the door was opened and the latency to re-enter the dark compartment was measured. A cutoff point of 300 sec was used for retention latency."}, "[6]": {"assay": "Pharmacokinetic study in rats", "format": "in vivo", "settings": "rat; for biovailability in rats: in vivo; for AUC(0-inf) / Cmax / MRT / Tmax / half-life: plasma, Rats", "from_the_text": "The results of the PK profile of AF292 in rats and Beagle dogs (overnight fasting; drug administered in water solution; gavage) are listed in Table 1."}, "[7]": {"test_system": "AF64A-injected rats", "assay": "Passive avoidance in AF64A-treated rats", "settings": "for Retention latency: 72 h after training; for Minimal effective dose: p.o."}, "[8]": {"settings": "oral, extrapolated for 10 mg/kg"}}, "note": "“Also recorded” adds a separate entry of the source."}
{"smiles": "CC1=NCC2(CCN(C)CC2)S1", "note": "[AF150(S), 2,8-Dimethyl-1-thia-3,8-diaza-spiro[4.5]dec-2-ene]", "values": [{"measurement": "Emax", "setting": "[1]", "value": 50, "unit": "%"}, {"measurement": "Emax", "setting": "[2]", "value": 30, "unit": "%"}, {"measurement": "Cell death induced by β-A25-35", "setting": "[3]", "value": "significantly attenuated"}, {"measurement": "Protection from H2O2-induced toxicity", "setting": "[4]", "value": "protect the cells"}, {"measurement": "Retention latency", "setting": "[5]; 5 mg/kg p.o.", "value": "222 ± 25.6", "unit": "s"}, {"measurement": "biovailability in rats", "setting": "[6]", "value": 31, "unit": "%"}]}
{"smiles": "CC[C@@H]1SC2(CCN(C)CC2)NC1=O", "note": "[AF267B, (S)-2-ethyl-8-methyl-1-thia-4,8-diaza-spiro[4.5]decan-3-one]", "values": [{"measurement": "EC50", "setting": "[1]", "value": 3, "unit": "µM"}, {"measurement": "α-APPs secretion, % of maximal response of carbachol", "setting": "[1]", "value": "equal to maximal response of carbachol"}, {"measurement": "α-APPs secretion, fold increase over control", "setting": "[1]; 10^−4M, maximal increase", "value": "about 6 fold"}, {"measurement": "Emax", "setting": "[1]", "value": 100, "unit": "%"}, {"measurement": "Emax", "setting": "[2]", "value": 60, "unit": "%"}, {"measurement": "MTT assay against Aβ 25–35 & H2O2 in cell cultures transfected with rat M1 mAChR", "setting": "[3]", "value": 100, "unit": "%"}, {"measurement": "Cell death induced by β-A25-35", "setting": "[3]", "value": "significantly attenuated"}, {"measurement": "Protection from H2O2-induced toxicity", "setting": "[4]", "value": "protect the cells"}, {"measurement": "Retention latency", "setting": "[5]; 0.5 mg/kg p.o.", "value": "181.1 ± 35.4", "unit": "s"}, {"measurement": "Retention latency", "setting": "[5]; 1 mg/kg p.o.", "value": "290.1 ± 8.5", "unit": "s"}, {"measurement": "Effect on passive avoidance", "setting": "[5]", "value": "0.5, 1, 5 positive effects"}, {"measurement": "MED", "setting": "[5]", "value": "MED 0.1–0.5 mg/kg, p.o."}, {"measurement": "AUC(0-inf)", "setting": "[6]; [8]", "value": 1550, "unit": "ng·h/mL"}, {"measurement": "Cmax", "setting": "[6]; [8]", "value": 1700, "unit": "ng/mL"}, {"measurement": "AUC(0-inf)", "setting": "[6]; po, 5 mg/kg", "value": 773, "unit": "ng·h/mL"}, {"measurement": "Cmax", "setting": "[6]; po, 5 mg/kg", "value": 852, "unit": "ng/mL"}, {"measurement": "MRT", "setting": "[6]; po, 5 mg/kg", "value": 60, "unit": "min"}, {"measurement": "Tmax", "setting": "[6]; po, 5 mg/kg", "value": 15, "unit": "min"}, {"measurement": "half-life", "setting": "[6]; po, 5 mg/kg", "value": 38.4, "unit": "min"}, {"measurement": "Retention latency", "setting": "[7]; 0.03 mg/kg p.o.", "value": "105.7 ± 31.9", "unit": "s"}, {"measurement": "Retention latency", "setting": "[7]; 0.1 mg/kg p.o.", "value": "440.7 ± 46.4", "unit": "s"}, {"measurement": "Minimal effective dose", "setting": "[7]", "value": "less than 0.1 mg/kg"}]}
{"smiles": "CC[C@@H]1SC2(CCNCC2)NC1=O", "note": "[AF292, (S)-2-Ethyl-1-thia-4,8-diaza-spiro[4.5]decan-3-one]", "values": [{"measurement": "EC50", "setting": "[1]", "value": 3, "unit": "µM"}, {"measurement": "α-APPs secretion, comparison in words", "setting": "[1]", "value": "as effective as AF267B; also recorded: Equipotent with AF267B &"}, {"measurement": "Emax", "setting": "[1]", "value": 100, "unit": "%"}, {"measurement": "Neurotrophic effect", "setting": "[2]; blocked by atropine", "value": "neurotrophic"}, {"measurement": "MTT assay against Aβ 25–35 & H2O2 in cell cultures transfected with rat M1 mAChR", "setting": "[3]", "value": "Equipotent with AF267B & CCh at 100 μM; Even"}, {"measurement": "Cell death induced by β-A25-35", "setting": "[3]", "value": "significantly attenuated"}, {"measurement": "Protection from H2O2-induced toxicity", "setting": "[4]", "value": "protect the cells"}, {"measurement": "Effect on passive avoidance", "setting": "[5]", "value": "positive effects"}, {"measurement": "MED", "setting": "[5]", "value": "< 0.03", "unit": "mg/kg"}, {"measurement": "Duration of action", "setting": "[5]; rat, in vivo", "value": "LONG DURATION OF ACTION"}, {"measurement": "Potency among the tested agonists", "setting": "[5]; rat, in vivo", "value": "most potent compound among the tested agonists"}, {"measurement": "biovailability in rats", "setting": "[6]", "value": 49, "unit": "%"}, {"measurement": "AUC(0-inf)", "setting": "[6]; po, 10 mg/kg", "value": 2150, "unit": "ng·h/mL"}, {"measurement": "Cmax", "setting": "[6]; po, 10 mg/kg", "value": 1910, "unit": "ng/mL"}, {"measurement": "MRT", "setting": "[6]; po, 10 mg/kg", "value": 90, "unit": "min"}, {"measurement": "Tmax", "setting": "[6]; po, 10 mg/kg", "value": 30, "unit": "min"}, {"measurement": "half-life", "setting": "[6]; po, 10 mg/kg", "value": 59.4, "unit": "min"}, {"measurement": "Retention latency", "setting": "[7]; 1mg/kg p.o.", "value": "447 ± 46.8", "unit": "s"}, {"measurement": "Minimal effective dose", "setting": "[7]", "value": "below 1 mg/kg"}]}
